Experiments:
Test in all cases: Post-emergence application in field trials, herbicidal activity (damage scale 0 to 100%)
Format in all cases: in vivo
[1] = test system: Amaranthus retroflexus (AMARE); conditions: 21 DAT, stage 31-49, height 10-12 cm
Experimental: (§1) In the examples below, using the method of S. R. Colby (1967) “Calculating synergistic and antagonistic responses of herbicide combinations”, Weeds 15, p. 22ff., the value E, which is expected if the activity of the individual active compounds is only additive, was calculated:
(§2) [formula] • wherein • X=percent activity using active herbicide A at an application rate a; • Y=percent activity using active herbicide B (e.g. pyroxasulfone) at an application rate b; • E=expected activity (in %) by A+B at application rates a+b.
(§3) For 3-component mixtures the synergistic response was calculated as described in: Ferry, Nancy; Stanley, Bruce H.; and Armel, Gregory (2005). “DESIGN AND ANALYSIS OF BIOLOGICAL ASSAYS OF MIXTURES,” Conference on Applied Statistics in Agriculture. https://doi.org/10.4148/2475-7772.1133. According to this publication, the Colby calculation can be generalized to a third mixing partner, Z, employing the following formula: […]
(§4) If the value found experimentally is higher than the value E calculated according to Colby, a synergistic effect is present.
(§5) On field test sites, natural weed infestation or seeded weeds were treated post-emergence of the weeds.
(§6) In the field trials, the weeds were treated as indicated below.
(§7) In the following experiments, the herbicidal activity for the individual herbicidal compositions (solo and mixture applications) was assessed at the indicated days after treatment (DAT). The assessments for the damage on undesired weeds caused by the composition was carried out using a scale from 0 to 100%, compared to the untreated control plants. Here, 0 means no damage and 100 means complete destruction of the plants.
(§8) Herbicide A-1 (342 g/l) and pyroxasulfone (500 g/l) were, together with addition of 0.25 v/v % MSO (methylated seed oil) as adjuvant, formulated in 200 l/ha water as distribution medium and sprayed with commercial flat fan nozzles.
(§9) Herbicide A-1 (342 g/l), pyroxasulfone (500 g/l) and trifludimoxazin (500 g/l) were, together with addition of 0.25 v/v % MSO (methylated seed oil) as adjuvant, formulated in 200 l/ha water as distribution medium and sprayed with commercial flat fan nozzles.
(§10) Herbicide A-1 (342 g/I), pyroxasulfone (500 g/l) and glyphosate-isopropylammonium (356 g/l) were, together with addition of 0.25 v/v % MSO (methylated seed oil) as adjuvant, formulated in 200 l/ha water as distribution medium and sprayed with commercial flat fan nozzles.
(§11) Herbicide A-1 (342 g/l), pyroxasulfone (500 g/l) and glufosinate-P-ammonium (211 g/l) were, together with addition of 0.25 v/v % MSO (methylated seed oil) as adjuvant, formulated in 200 l/ha water as distribution medium and sprayed with commercial flat fan nozzles.
(§12) Herbicide A-1 (342 g/l), pyroxasulfone (500 g/l) and 2,4-D-choline (456 g/l) were, together with addition of 0.25 v/v % MSO (methylated seed oil) as adjuvant, formulated in 200 l/ha water as distribution medium and sprayed with commercial flat fan nozzles.

[2] = test system: Digitaria sanguinalis (DIGSA); conditions: stage 22, height 10-15 cm
Experimental: as §1, §2, §3, §4, §5, §6, §7, §8, §9, §10, §11, §12

Hordeum vulgare (HORVW) = conditions: stage 23-29, height 20-25 cm
Experimental: as §1, §2, §3, §4, §5, §6, §7, §8, §9, §10, §11, §12

[3] = test system: Lolium multiflorum (LOLMU); conditions: stage 22-25, height 20-25 cm
Experimental: as §1, §2, §3, §4, §5, §6, §7, §8, §9, §10, §11, §12

[4] = test system: Setaria verticillata (SETVE); conditions: stage 21-23, height 8-16 cm
Experimental: as §1, §2, §3, §4, §5, §6, §7, §8, §9, §10, §11, §12

Zea mays (ZEAMX) = test system: Zea mays (ZEAMX)
Experimental: as §1, §2, §3, §4, §5, §6, §7, §8, §9, §10, §11, §12

[5] = 7 DAT, g ai/ha A-1 18, B 70, C-12 252
[6] = 7 DAT, g ai/ha A-1 18, B 90, C-12 252
[7] = 21 DAT, g ai/ha A-1 18, B 70, C-12 252
[8] = 21 DAT, g ai/ha A-1 18, B 90, C-12 252
[9] = 42 DAT, g ai/ha A-1 18, B 90, C-12 252
[10] = Table 8.1, 7 DAT, g ai/ha A-1 18, B 70, C-12 1066
[11] = 7 DAT, g ai/ha A-1 12.5, B 70, C-12 252
[12] = 21 DAT, g ai/ha A-1 12.5, B 70, C-12 252
[13] = 28 DAT, g ai/ha A-1 12.5, B 70, C-12 252
[14] = 28 DAT, g ai/ha A-1 18, B 70, C-12 252
[15] = 28 DAT, g ai/ha A-1 18, B 90, C-12 252

Measured: % Herbicidal activity

CP(=O)(O)CC[C@H](N)C(=O)O.N [C-12, glufosinate-P-ammonium]
15%: [4]; Table 8.4, 42 DAT, g ai/ha A-1 12.5, B 70, C-12 1066
40%: Hordeum vulgare (HORVW); [11] | Hordeum vulgare (HORVW); [5] | Hordeum vulgare (HORVW); [6]
30%: Hordeum vulgare (HORVW); [12] | Hordeum vulgare (HORVW); [7] | Hordeum vulgare (HORVW); [8] | Hordeum vulgare (HORVW); [13] | Hordeum vulgare (HORVW); [14] | Hordeum vulgare (HORVW); [15] | [3]; [12] | [3]; [7] | [3]; [8] | [3]; [13] | [3]; [14] | [3]; [15]
70%: [2]; [5] | [2]; [6] | [2]; [7] | [2]; [8] | Zea mays (ZEAMX); 7 DAT, stage 15-16, height 27-33 cm, g ai/ha A-1 12.5, B 70, C-12 252 | Zea mays (ZEAMX); 7 DAT, stage 15-16, height 27-33 cm, g ai/ha A-1 18, B 70, C-12 252 | Zea mays (ZEAMX); 7 DAT, stage 15-16, height 27-33 cm, g ai/ha A-1 18, B 90, C-12 252
10%: [2]; Table 8.4, 42 DAT, g ai/ha A-1 18, B 70, C-12 1066
7%: Zea mays (ZEAMX); Table 8.1, 7 DAT, stage 15-16, height 50-60 cm, g ai/ha A-1 18, B 70, C-12 1066 | Zea mays (ZEAMX); Table 8.1, 7 DAT, stage 15-16, height 50-60 cm, g ai/ha A-1 18, B 90, C-12 1066
55%: [2]; 42 DAT, g ai/ha A-1 18, B 70, C-12 252 | [2]; [9]
25%: [4]; [10] | [4]; Table 8.2, 21 DAT, g ai/ha A-1 12.5, B 70, C-12 1066
20%: [2]; [10] | [2]; Table 8.2, 21 DAT, g ai/ha A-1 18, B 70, C-12 1066
35%: [4]; 42 DAT, g ai/ha A-1 12.5, B 70, C-12 252 | [4]; [9]
45%: Zea mays (ZEAMX); 42 DAT, stage 15-16, height 27-33 cm, g ai/ha A-1 12.5, B 70, C-12 252 | Zea mays (ZEAMX); 42 DAT, stage 15-16, height 27-33 cm, g ai/ha A-1 18, B 70, C-12 252 | Zea mays (ZEAMX); 42 DAT, stage 15-16, height 27-33 cm, g ai/ha A-1 18, B 90, C-12 252
60%: Zea mays (ZEAMX); 21 DAT, stage 15-16, height 27-33 cm, g ai/ha A-1 12.5, B 70, C-12 252 | Zea mays (ZEAMX); 21 DAT, stage 15-16, height 27-33 cm, g ai/ha A-1 18, B 70, C-12 252 | Zea mays (ZEAMX); 21 DAT, stage 15-16, height 27-33 cm, g ai/ha A-1 18, B 90, C-12 252
90%: [1]; g ai/ha A-1 18, B 70, C-12 252 | [1]; g ai/ha A-1 18, B 90, C-12 252
65%: [4]; [5] | [4]; [6] | [4]; [8]
50%: [3]; [11] | [3]; [5] | [3]; [6]
